Measured values published in PMC2680649 (International Journal of Molecular Sciences, 2009).
Where two headings read alike, the source gives them in different places.

Assays:
cytochrome P450 = type: in vitro ADME, rat
[1] = In vitro metabolism of zearalenone, rat liver microsomal preparation; type: in vitro ADME, rat (Sprague Dawley); details: Rat (untreated) liver microsomes, 1 μM total P450, 50 μM ZEN, NADPH-generating system, pH 7.4, 30 min; n = 4
Description: (§1) Monkeys (Cynomolgus, Macaca fascicularis), pig (Yucatan), dog (Beagle), rabbit (New Zealand), mouse (CD-1) and rat (Sprague Dawley) liver microsomes, rat 2C Supersomes® were purchased from Gentest (BD Biosciences, NJ, USA). Pools of human livers for female or male were purchased from Xenotech (Tebu-Bio, Le Perray en Yvelines, France). Human CYP Bactosomes® were provided by Cypex (Tebu-Bio, Le Perray en Yvelines, France).

[2] = In vitro metabolism of zearalenone, pig liver microsomal preparation; type: in vitro ADME, pig (Yucatan); details: Pig liver microsomes, 1 μM total P450, 50 μM ZEN, NADPH-generating system, pH 7.4, 30 min; n = 4
Description: as §1

[3] = In vitro metabolism of zearalenone, rabbit liver microsomal preparation; type: in vitro ADME, rabbit (New Zealand); details: Rabbit liver microsomes, 1 μM total P450, 50 μM ZEN, NADPH-generating system, pH 7.4, 30 min; n = 4
Description: as §1

[4] = In vitro metabolism of zearalenone, human female liver microsomal preparation; type: in vitro ADME; details: Human Female liver microsomes, 1 μM total P450, 50 μM ZEN, NADPH-generating system, pH 7.4, 30 min; n = 4
Description: as §1

[5] = In vitro metabolism of zearalenone, mouse liver microsomal preparation; type: in vitro ADME, mouse (CD-1); details: Mouse liver microsomes, 1 μM total P450, 50 μM ZEN, NADPH-generating system, pH 7.4, 30 min; n = 4
Description: as §1

[6] = ZEN incubation with rat liver cytosolic fraction; details: rat liver cytosol, presence of NADPH
[7] = In vitro metabolism of zearalenone, dog liver microsomal preparation; type: in vitro ADME, dog (Beagle); details: Dog liver microsomes, 1 μM total P450, 50 μM ZEN, NADPH-generating system, pH 7.4, 30 min; n = 4
Description: as §1

[8] = In vitro metabolism of zearalenone, Cynomolgus monkey liver microsomal preparation; type: in vitro ADME, Macaca fascicularis; details: Cynomolgus monkey liver microsomes, 1 μM total P450, 50 μM ZEN, NADPH-generating system, pH 7.4, 30 min; n = 4
Description: as §1

[9] = In vitro metabolism of zearalenone, human male liver microsomal preparation; type: in vitro ADME; details: Human Male liver microsomes, 1 μM total P450, 50 μM ZEN, NADPH-generating system, pH 7.4, 30 min; n = 4
Description: as §1

[10] = ZEN incubation with rat liver post-mitochondrial fraction (S9)
[11] = In vitro metabolism of zearalenone, PB-treated rat liver microsomal preparation; details: PB-treated rat liver microsomes, 1 μM total P450, 50 μM ZEN, NADPH-generating system, pH 7.4, 30 min; n = 4
hER-α = target: T1, hER-α (Homo sapiens, UniProt P03372); experiment: cell-based; type: cell-based
T1 construct: expressed in transfected cells; host or cells: HELN (HeLa carrying a stably transfected estrogen-responsive luciferase reporter)
T1 sequence (P03372 whole entry): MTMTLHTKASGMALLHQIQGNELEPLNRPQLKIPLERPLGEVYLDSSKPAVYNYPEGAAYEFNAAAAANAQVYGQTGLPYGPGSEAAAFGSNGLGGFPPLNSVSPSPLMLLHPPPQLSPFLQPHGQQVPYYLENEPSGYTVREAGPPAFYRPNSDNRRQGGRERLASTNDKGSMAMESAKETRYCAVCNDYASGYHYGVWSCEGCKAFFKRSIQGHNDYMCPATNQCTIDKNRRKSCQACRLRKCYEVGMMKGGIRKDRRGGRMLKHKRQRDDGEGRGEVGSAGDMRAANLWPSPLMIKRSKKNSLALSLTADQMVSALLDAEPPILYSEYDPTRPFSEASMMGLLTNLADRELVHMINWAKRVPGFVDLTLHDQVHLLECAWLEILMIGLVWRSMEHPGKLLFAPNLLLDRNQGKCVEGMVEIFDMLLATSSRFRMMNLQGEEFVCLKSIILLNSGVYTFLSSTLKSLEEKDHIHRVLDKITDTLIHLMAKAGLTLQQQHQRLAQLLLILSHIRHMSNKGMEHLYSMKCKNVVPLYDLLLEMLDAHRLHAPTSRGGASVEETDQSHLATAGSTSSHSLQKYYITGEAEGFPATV

hER-β = target: T2, hER-β (Homo sapiens, UniProt Q92731); experiment: cell-based; details: read-out: EC50, half-maximal luciferase activity, transcriptional activation through ER β
T2 construct: expressed in transfected cells; host or cells: HELN (HeLa carrying a stably transfected estrogen-responsive luciferase reporter)
T2 sequence (Q92731 whole entry): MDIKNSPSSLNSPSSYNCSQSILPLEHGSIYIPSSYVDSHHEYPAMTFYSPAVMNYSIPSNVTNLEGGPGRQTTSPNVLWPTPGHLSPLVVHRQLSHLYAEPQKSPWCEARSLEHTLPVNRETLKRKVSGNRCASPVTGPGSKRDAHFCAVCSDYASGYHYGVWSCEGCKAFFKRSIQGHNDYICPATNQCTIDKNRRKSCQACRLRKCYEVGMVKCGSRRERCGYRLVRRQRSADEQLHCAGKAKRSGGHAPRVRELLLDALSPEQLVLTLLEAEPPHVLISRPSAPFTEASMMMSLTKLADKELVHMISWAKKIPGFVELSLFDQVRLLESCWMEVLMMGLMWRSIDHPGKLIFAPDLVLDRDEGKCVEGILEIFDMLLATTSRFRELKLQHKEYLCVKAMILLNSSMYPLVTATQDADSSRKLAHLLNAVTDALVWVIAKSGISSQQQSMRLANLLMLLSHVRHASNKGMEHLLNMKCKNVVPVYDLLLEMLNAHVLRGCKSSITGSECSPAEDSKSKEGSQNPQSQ

human ERβ = test system: human ERβ; design: method as in PMID 9751507; details: cells transfected with human ERβ; cited from earlier work
human ERα = test system: human ERα; design: method as in PMID 9751507; details: cells transfected with human ERα; cited from earlier work

Molecule: [C-]#[O+] [carbon monoxide]
- effect on formation of OH-ZEN (cytochrome P450; carbon monoxide): inhibited

Molecule: C[C@H]1CCC[C@H](O)CCC/C=C/c2cc(O)cc(O)c2C(=O)O1 [α-ZOL, α-zearalenol]
- formation rate of ZEN metabolite [1]: 14.7 ± 2.5 nmoles/30 min/nmole P450
- formation rate of ZEN metabolite [2]: 7.4 ± 0.6 nmoles/30 min/nmole P450
- formation rate of ZEN metabolite [3]: 2.5 ± 0.4 nmoles/30 min/nmole P450
- formation rate of ZEN metabolite [4]: 3.3 ± 0.5 nmoles/30 min/nmole P450
- formation rate of ZEN metabolite [5]: 41.3 ± 11.5 nmoles/30 min/nmole P450
- metabolite formed in cytosolic fraction [6]: formed
- formation rate of ZEN metabolite [7]: 2.8 ± 0.3 nmoles/30 min/nmole P450
- formation rate of ZEN metabolite [8]: 4.0 ± 0.4 nmoles/30 min/nmole P450
- formation rate of ZEN metabolite [9]: 3.6 ± 0.3 nmoles/30 min/nmole P450

Molecule: CC(=O)N1CCN(c2ccc(OCC3COC(Cn4ccnc4)(c4ccc(Cl)cc4Cl)O3)cc2)CC1 (stereo not shown) [ketoconazole]
- effect on formation of OH-ZEN (cytochrome P450): inhibited

Molecule: β-zearalenol [β-ZOL]
- formation rate of ZEN metabolite [2]: 10.0 ± 1.8 nmoles/30 min/nmole P450
- formation rate of ZEN metabolite [3]: 1.9 ± 0.4 nmoles/30 min/nmole P450
- formation rate of ZEN metabolite [4]: 0.3 ± 0.1 nmoles/30 min/nmole P450
- metabolite found in post-mitochondrial incubation (fraction S9) [10]: in association with β-ZOL
- metabolite formed in cytosolic fraction [6]: formed
- formation rate of ZEN metabolite [11]: 3.3 ± 0.4 nmoles/30 min/nmole P450

Molecule: C[C@H]1CCC[C@H](O)CCCCCc2cc(O)cc(O)c2C(=O)O1 [α–ZAL, α-zearalanol]
- EC50 (hER-α; read-out: EC50, half-maximal luciferase activity, transcriptional activation through ER α, HELN ER-α cells, 16 h at 37 °C, maximal activity with 10 nM E2): 0.49 ± 0.9 nM

Molecule: C[C@H]1CCCC(=O)CCC/C=C/c2cc(O)cc(O)c2C(=O)O1 [ZEN, (3S,11E)-3,4,5,6,9,10-Hexahydro-14,16-dihydroxy-3-methyl-1H-2-benzoxacyclotetradecin-1,7(8H)-dione]
- EC50 (hER-β): 11.5 ± 2.5 nM
- EC50 (hER-α): 11.8 ± 1.9 nM
- agonist character for ERβ (human ERβ): partial agonist
- agonist character for ERα (human ERα): full agonist
